Results reported in patent publication US20130203734A1, “ANTI-INFLAMMATORY AGENTS” (priority 2010, published 2013).

Columns and labels:
[1] = test system: MCP-1 induced migration of THP-1 cells; test: Inhibition of MCP-1 induced leukocyte migration (transwell, THP-1 cells); format: cell-based; details: Homo sapiens, MCP-1 25 ng/ml, 2 hours 37° C., read-out: ED50 (concentration required to reduce MCP-1-induced migration by 50%)
Procedure: A. Inhibition of MCP-1 Induced Leukocyte Migration
In principle, this assay consists of two chambers separated by a porous membrane. The chemoattractant is placed in the lower compartment and the cells are placed in the upper compartment. After incubation for a period at 37° C. the cells move towards the chemoattractant, and the number of cells in the lower compartment is proportional to the chemoattractant activity (relative to a series of controls).
This assay can be used with a range of different leukocyte populations. For example, freshly prepared human peripheral blood leukocytes may used. Alternatively, leukocyte subsets may be prepared, including polymorphonuclear cells or lymphocytes or monocytes using methods well known to those skilled in the art such as density gradient centrifugation or magnetic bead separations. Alternatively, immortal cell lines which have been extensively validated as models of human peripheral blood leukocytes may be used, including, but not limited to THP-1 cells as a model of monocytes or Jurkat cells as model of naive T cells.
The transwell migration systems are manufactured by Neuroprobe, Gaithersburg, Md., USA.
The plates used are ChemoTx plates (Neuroprobe 101-8) and 30 μl clear plates (Neuroprobe MP30).
Geys' Balanced Salt Solution is purchased from Sigma (Sigma G-9779).
Fatty acid-free BSA is purchased from Sigma (Sigma A-8806). […]

[2] = test system: endotoxin-stimulated TNF-alpha levels; test: Murine sub-lethal endotoxemia model, serum TNF-α by ELISA; format: in vivo, mice
Procedure: FIG. 2 is a graph showing the results of a murine sub-lethal endotoxemia test.
The anti-inflammatory efficacy of an exemplar compound according to the present invention was tested using the murine sub-lethal endotoxemia model.
Briefly, the method is as follows. Female CD1 mice (28-30g, ˜7 weeks of age) were dosed with their respective treatment in sterile filtered 1% CMC by oral gavage in a dose volume of 10 ml/kg one hour prior to an endotoxin (LPS) challenge. The endotoxin challenge was injected by the intraperitoneal route containing 675,000 Endotoxin Units of LPS (E. coli strain 0111:B4 (Code L4130)) in endotoxin free PBS. Mice were left for two hours and then exsanguinated under terminal anaesthesia and blood was taken. Serum was prepared from this terminal bleed and aliquoted and stored at −20° C. Serum TNF-α levels were measured by ELISA per manufacturers instructions (R and D Systems).
Eight animals were treated in each group, and the data for the animal with the highest and lowest TNF-α level in each group were eliminated, and the mean and standard error reported for the remaining six animals.

[3] = test system: MCP-1 induced migration of THP-1 cells; details: cited from earlier work
[4] = cited from earlier work
[5] = test system: chemokine-induced migration; details: cited from earlier work
[6] = 37° C.; cited from earlier work

melting point [°C] | Molecule | further results
162 to 163 | O=C1NCCC[C@@H]1NS(=O)(=O)c1ccc(F)cc1F [Example 7, (S)-2,4-difluoro-N-(2-oxopiperidin-3-yl)benzenesulfonamide] | –
98 to 99 | CCCCCCCCc1ccc(S(=O)(=O)N[C@H]2CCCNC2=O)cc1 [Example 19, (S)-3-(4′-Octylbenzenesulfonylamino)-tetrahydropyridin-2-one] | –
161 to 163 | O=C1NCCC[C@@H]1NS(=O)(=O)c1ccccc1C(F)(F)F [Example 6, (S)—N-(2-oxopiperidin-3-yl)-2-(trifluoromethyl)benzenesulfonamide] | –
153 to 155 | O=C1NCCC[C@@H]1NS(=O)(=O)c1ccc(F)c(F)c1 [Example 10, (S)-3,4-difluoro-N-(2-oxopiperidin-3-yl)benzenesulfonamide] | –
155 to 156 | CC(C)(C)c1ccc(S(=O)(=O)N[C@H]2CCCNC2=O)cc1 [Example 16, (S)-3-(4′-tert-Butylbenzenesulfonylamino)-tetrahydropyridin-2-one] | –
152 to 153 | O=C1NCCC[C@@H]1NS(=O)(=O)c1c(F)cccc1F [Example 9, (S)-2,6-difluoro-N-(2-oxopiperidin-3-yl)benzenesulfonamide] | –
183 to 185 | O=C1NCCC[C@@H]1NS(=O)(=O)c1cc(F)ccc1F [Example 8, (S)-2,5-difluoro-N-(2-oxopiperidin-3-yl)benzenesulfonamide] | –
180 to 183 | O=C1NCCC[C@@H]1NS(=O)(=O)c1ccccc1F [Example 3, (S)-2-Fluoro-N-(2-oxopiperidin-3-yl)benzenesulfonamide] | –
170 to 174 | O=C1NCCC[C@@H]1NS(=O)(=O)c1cc(F)cc(F)c1 [Example 11, (S)-3,5-difluoro-N-(2-oxopiperidin-3-yl)benzenesulfonamide] | –
158 to 160 | O=C1NCCC[C@@H]1NS(=O)(=O)c1cccc(C(F)(F)F)c1 [Example 5, (S)—N-(2-Oxopiperidin-3-yl)-3-(trifluoromethyl)benzenesulfonamide] | –

Continued, molecule first:

Molecule | melting point [°C] | further results
O=C1NCCC[C@@H]1NS(=O)(=O)c1ccc(F)cc1 [Example 1, (S)-4-Fluoro-N-(2-oxopiperidin-3-yl)benzenesulfonamide] | 153 to 156 | –
Cc1ccc(S(=O)(=O)NC2CCCNC2=O)cc1 (stereo not drawn) [Reference Example 1, 3-(4′-Methylbenzenesulfonylamino)tetrahydropyridin-2-one] | – | EC50 [1]: ≤ 100 nM
Cc1ccc(S(=O)(=O)NC2CCCCNC2=O)cc1 (stereo not drawn) [Reference Example 2, 3-(4′-Methylbenzenesulfonylamino)azepan-2-one] | – | EC50 [1]: ≤ 100 nM
O=C1NCCC[C@@H]1NS(=O)(=O)c1ccc(C(F)(F)F)cc1 [Example 4, (S)—N-(2-Oxopiperidin-3-yl)-4-(trifluoromethyl)-benzenesulfonamide] | – | inhibition of endotoxin-stimulated TNF-alpha levels ([2]; female CD1 mice, single dose 10 mg/kg p.o. one hour prior to LPS, serum 2 hours after LPS): 60-70%
CCCCCCCCCCC(C)(C)C(=O)NC1CCCCNC1=O (stereo not drawn) [2′2′-dimethyldodecenanoyl-3-aminocaprolactam] | – | potency as a BSCI relative to dodecanoyl-3-aminocaprolactam ([3]; MCP-1 induced THP-1 cell migration assay): 10 fold
O=C1CCC(N2C(=O)c3ccccc3C2=O)C(=O)N1 (stereo not drawn) [thalidomide] | – | anti-inflammatory effect on TNF-α levels in vivo compared with the compound of Example 4 ([2]; thalidomide 10 mg/kg p.o., positive control, maximally effective dose): quantitatively similar
O=C1NCCCC[C@@H]1NC(=O)C12CC3CC(CC(C3)C1)C2 [(S)-3-(adamantane-1-carbonyl)aminocaprolactam] | – | anti-inflammatory effect in vivo compared with the compound of Example 4 ([2]; 1 mg/kg p.o.): similar
O=C1NCCC[C@@H]1NS(=O)(=O)c1cccc(F)c1 [Example 2, (S)-3-Fluoro-N-(2-oxopiperidin-3-yl)benzenesulfonamide] | 159 to 160 | –
c(DCys-DGln-DIle-DTrp-DLys-DGIn-DLys-DPro-DAsp-DLeu-DCys)-NH2 [NR58-3.14.3] | – | half-life of clearance from blood plasma ([4]; after intravenous injection): less than 30 minutes; oral bioavailability ([4]; in vivo, po): not orally bioavailable
(S)-3-(undec-10-enoyl)-tetrahydropyridin-2-one | – | potency compared with the parental molecule (S)-3-(undec-10-enoyl)-aminoglutarimide [5]: considerably reduced potency; stability in human serum (completely stable for) [6]: at least 7 days
CCCCCCCCCC(C)(C)CC(=O)NC1CCCCNC1=O (stereo not drawn) [3′3′-dimethyldodecanoyl-3-aminocaprolactam] | – | potency as a BSCI relative to the linear alkyl analogs [3]: no more potent
CCCCCCCCCC=CC(=O)NC1CCCCNC1=O (stereo not drawn) [dodec-2′,3′-enoyl-3-aminocaprolactam] | – | potency as BSCI relative to compounds with corresponding saturated alkyl tail groups [5]: markedly lower potency
